In publication PMC9841523 (Journal of Medicinal Chemistry, 2022):

Experiments:
[1] = molecular target: T1, M3(h) (antagonist radioligand) (Homo sapiens, UniProt P20309); assay: Eurofins Safety Screen 44; assay type: binding; conditions: read-out: % Inhibition of Control Values
T1 construct: purchased ActivX Biosciences (KiNativ)

[2] = molecular target: T2, H1(h) (antagonist radioligand) (Homo sapiens, UniProt P35367); assay: Eurofins Safety Screen 44; assay type: binding; conditions: read-out: % Inhibition of Control Values
T2 construct: purchased ActivX Biosciences (KiNativ)

[3] = molecular target: T3, EphB2 (Homo sapiens, UniProt P29323); assay: KiNativ kinase panel; assay type: cell-based; conditions: 1 μM; MCF-7 Cells; Activation Loop; FLEDDTSDPTYTSALGGKIPIR
T3 construct: MCF7 cells were exposed to; endogenous in cells; host or cells: MCF7

[4] = molecular target: T4, 5-HT3(h) (antagonist radioligand) (Homo sapiens, UniProt P46098); assay: Eurofins Safety Screen 44; assay type: binding; conditions: read-out: % Inhibition of Control Values
T4 construct: purchased ActivX Biosciences (KiNativ)

[5] = molecular target: T5, ETA(h) (agonist radioligand) (Homo sapiens, UniProt P25101); assay: Eurofins Safety Screen 44; assay type: binding; conditions: read-out: % Inhibition of Control Values
T5 construct: purchased ActivX Biosciences (KiNativ)

[6] = system: AKT S473 phosphorylation (mTORC2); assay: AlphaLISA/MSD analysis of AKT phosphorylation in MDA-MB-468 cells; assay type: cell-based; conditions: Homo sapiens, MDA-MB-468, read-out: pAKT IC50
[7] = system: MSK1 domain1, MSK2 domain1; assay: KiNativ kinase panel; assay type: cell-based, human; conditions: 1 μM, MCF-7 Cells, ATP Loop
[8] = molecular target: T6, A2A(h) (agonist radioligand) (Homo sapiens, UniProt P29274); assay: Eurofins Safety Screen 44; assay type: binding; conditions: read-out: % Inhibition of Control Values
T6 construct: purchased ActivX Biosciences (KiNativ)

[9] = molecular target: T7, CB2(h) (agonist radioligand) (Homo sapiens, UniProt P34972); assay: Eurofins Safety Screen 44; assay type: binding; conditions: read-out: % Inhibition of Control Values
T7 construct: purchased ActivX Biosciences (KiNativ)

[10] = system: tumor p4EBP1; assay: Tumor PD after a single dose in the MCF-7 CDX model; assay type: in vivo, mice; conditions: for effect on tumor p4EBP1 levels: MCF-7 CDX, single dose (38, 40 ip; everolimus 5 mg/kg oral); for MCF-7 tumor PD: dose proportional duration of >80% p4EBP1 inhibition: single ip dose
[11] = molecular target: T8, μ (MOP) (h) (agonist radioligand) (Homo sapiens, UniProt P35372); assay: Eurofins Safety Screen 44; assay type: binding; conditions: read-out: % Inhibition of Control Values
T8 construct: purchased ActivX Biosciences (KiNativ)

[12] = system: p-P70S6K Thr389; assay: AlphaLISA/MSD analysis of S6K phosphorylation in MDA-MB-468 cells; assay type: cell-based; conditions: Homo sapiens, MDA-MB-468, read-out: pS6K IC50
[13] = molecular target: T9, LATS2 (Homo sapiens, UniProt Q9NRM7); assay: KiNativ kinase panel; assay type: cell-based; conditions: 1 μM, MCF-7 Cells
T9 construct: endogenous in cells; host or cells: MCF7
T9 sequence (Q9NRM7 1-1088): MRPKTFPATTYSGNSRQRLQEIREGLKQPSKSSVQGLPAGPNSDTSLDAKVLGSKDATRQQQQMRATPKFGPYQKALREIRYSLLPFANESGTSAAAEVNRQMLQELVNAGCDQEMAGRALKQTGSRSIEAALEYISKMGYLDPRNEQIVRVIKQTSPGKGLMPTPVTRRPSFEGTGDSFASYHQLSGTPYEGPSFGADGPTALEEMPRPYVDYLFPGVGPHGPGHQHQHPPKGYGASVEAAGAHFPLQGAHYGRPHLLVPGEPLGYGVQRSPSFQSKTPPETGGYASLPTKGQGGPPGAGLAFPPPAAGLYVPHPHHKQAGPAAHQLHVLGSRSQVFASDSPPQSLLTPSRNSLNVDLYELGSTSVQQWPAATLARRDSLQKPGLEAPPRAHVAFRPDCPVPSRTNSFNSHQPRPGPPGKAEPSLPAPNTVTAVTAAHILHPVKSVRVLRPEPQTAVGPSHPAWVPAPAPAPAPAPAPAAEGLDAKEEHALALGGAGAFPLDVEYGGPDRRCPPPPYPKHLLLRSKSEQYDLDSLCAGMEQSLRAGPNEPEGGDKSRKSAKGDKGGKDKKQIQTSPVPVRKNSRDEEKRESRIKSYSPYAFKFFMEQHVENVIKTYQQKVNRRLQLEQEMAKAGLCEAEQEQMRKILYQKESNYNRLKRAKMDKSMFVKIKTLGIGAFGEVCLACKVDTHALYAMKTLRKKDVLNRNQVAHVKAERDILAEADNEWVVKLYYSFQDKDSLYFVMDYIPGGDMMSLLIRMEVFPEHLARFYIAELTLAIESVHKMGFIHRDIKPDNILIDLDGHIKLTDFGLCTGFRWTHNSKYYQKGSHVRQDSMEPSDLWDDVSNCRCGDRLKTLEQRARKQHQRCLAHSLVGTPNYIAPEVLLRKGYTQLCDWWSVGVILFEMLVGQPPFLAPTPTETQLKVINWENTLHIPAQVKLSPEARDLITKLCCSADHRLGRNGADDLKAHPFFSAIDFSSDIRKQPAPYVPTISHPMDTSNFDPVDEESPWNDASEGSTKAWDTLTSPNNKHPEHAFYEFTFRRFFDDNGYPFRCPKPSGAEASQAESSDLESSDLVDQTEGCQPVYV

[14] = system: RSK1 domain1, RSK2 domain1, RSK3 domain1; assay: KiNativ kinase panel; assay type: cell-based, human; conditions: 1 μM; MCF-7 Cells; Lys2; DLKPENILLDEEGHIK
[15] = system: Wnk1, Wnk2, Wnk3; assay: KiNativ kinase panel; assay type: cell-based, human; conditions: 1 μM; MCF-7 Cells; Lys2; DLKCDNIFITGPTGSVK

T3 sequence (P29323 19-1055): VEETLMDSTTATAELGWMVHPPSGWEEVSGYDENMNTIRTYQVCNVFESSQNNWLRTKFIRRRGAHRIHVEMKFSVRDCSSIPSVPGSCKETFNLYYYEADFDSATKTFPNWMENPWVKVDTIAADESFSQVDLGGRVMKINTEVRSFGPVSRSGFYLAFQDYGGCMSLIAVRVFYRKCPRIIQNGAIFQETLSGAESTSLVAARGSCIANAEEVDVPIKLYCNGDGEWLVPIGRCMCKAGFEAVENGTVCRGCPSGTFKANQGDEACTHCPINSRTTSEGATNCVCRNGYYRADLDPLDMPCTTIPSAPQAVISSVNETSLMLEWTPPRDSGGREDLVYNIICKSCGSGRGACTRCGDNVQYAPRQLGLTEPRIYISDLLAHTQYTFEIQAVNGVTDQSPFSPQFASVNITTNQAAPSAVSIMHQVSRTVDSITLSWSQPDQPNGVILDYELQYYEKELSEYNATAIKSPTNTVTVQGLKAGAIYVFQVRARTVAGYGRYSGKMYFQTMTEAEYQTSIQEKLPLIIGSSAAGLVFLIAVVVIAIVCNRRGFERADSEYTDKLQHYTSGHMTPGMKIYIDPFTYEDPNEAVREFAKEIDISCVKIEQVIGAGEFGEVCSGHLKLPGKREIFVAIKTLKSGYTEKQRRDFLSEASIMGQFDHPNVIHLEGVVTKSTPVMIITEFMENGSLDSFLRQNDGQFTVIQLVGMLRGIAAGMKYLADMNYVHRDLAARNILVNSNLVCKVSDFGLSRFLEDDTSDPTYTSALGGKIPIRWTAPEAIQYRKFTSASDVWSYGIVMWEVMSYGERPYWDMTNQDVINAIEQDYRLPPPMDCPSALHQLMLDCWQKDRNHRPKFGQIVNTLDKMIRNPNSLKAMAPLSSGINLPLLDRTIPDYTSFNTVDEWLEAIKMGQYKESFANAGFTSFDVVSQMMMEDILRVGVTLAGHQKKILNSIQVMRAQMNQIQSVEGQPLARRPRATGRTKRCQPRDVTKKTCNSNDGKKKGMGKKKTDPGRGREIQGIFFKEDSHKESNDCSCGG
T2 sequence (P35367 whole entry): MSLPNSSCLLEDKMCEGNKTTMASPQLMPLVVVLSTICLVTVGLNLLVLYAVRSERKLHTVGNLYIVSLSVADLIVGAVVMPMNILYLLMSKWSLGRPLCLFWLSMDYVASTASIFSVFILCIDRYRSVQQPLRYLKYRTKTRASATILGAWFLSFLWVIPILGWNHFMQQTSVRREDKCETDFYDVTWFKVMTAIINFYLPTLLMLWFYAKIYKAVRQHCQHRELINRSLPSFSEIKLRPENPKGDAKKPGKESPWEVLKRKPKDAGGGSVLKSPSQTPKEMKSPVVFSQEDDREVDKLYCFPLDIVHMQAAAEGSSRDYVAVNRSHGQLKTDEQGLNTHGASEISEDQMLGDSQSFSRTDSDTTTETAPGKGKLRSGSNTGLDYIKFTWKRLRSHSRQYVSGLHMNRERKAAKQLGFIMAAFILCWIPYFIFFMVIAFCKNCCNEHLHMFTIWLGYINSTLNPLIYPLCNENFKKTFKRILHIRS
T8 sequence (P35372 whole entry): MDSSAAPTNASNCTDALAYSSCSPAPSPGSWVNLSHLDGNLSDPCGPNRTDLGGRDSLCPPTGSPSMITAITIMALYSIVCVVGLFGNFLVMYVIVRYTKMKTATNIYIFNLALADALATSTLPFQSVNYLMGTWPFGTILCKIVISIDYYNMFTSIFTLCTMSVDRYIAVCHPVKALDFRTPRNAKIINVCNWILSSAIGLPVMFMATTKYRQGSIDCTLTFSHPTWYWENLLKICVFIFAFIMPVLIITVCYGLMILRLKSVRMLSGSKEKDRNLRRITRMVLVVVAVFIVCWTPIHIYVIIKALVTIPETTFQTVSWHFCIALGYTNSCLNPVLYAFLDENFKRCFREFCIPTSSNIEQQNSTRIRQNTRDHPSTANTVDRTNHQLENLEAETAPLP
T4 sequence (P46098 24-478): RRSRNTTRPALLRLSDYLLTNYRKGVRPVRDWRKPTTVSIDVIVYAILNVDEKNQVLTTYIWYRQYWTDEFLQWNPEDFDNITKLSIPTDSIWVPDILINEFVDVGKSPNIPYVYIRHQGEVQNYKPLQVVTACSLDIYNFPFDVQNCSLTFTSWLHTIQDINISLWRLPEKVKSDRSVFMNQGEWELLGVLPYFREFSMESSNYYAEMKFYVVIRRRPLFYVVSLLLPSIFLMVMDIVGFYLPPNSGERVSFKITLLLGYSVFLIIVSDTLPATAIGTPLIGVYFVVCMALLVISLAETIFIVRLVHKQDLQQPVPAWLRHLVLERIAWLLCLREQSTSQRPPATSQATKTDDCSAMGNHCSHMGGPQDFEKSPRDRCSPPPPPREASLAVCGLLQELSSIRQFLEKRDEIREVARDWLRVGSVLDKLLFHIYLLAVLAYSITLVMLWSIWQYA
T6 sequence (P29274 whole entry): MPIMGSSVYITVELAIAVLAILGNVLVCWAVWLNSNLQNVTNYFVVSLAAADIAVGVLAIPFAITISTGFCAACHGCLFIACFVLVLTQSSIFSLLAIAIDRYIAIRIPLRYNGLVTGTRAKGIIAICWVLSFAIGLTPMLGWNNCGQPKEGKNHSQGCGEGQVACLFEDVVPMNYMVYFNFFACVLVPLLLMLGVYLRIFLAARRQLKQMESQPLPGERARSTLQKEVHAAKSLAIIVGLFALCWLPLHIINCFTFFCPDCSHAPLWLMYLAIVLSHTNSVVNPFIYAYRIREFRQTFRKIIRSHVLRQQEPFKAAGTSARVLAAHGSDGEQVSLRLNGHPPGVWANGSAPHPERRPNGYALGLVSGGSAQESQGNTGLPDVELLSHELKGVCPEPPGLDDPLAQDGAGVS
T1 sequence (P20309 whole entry): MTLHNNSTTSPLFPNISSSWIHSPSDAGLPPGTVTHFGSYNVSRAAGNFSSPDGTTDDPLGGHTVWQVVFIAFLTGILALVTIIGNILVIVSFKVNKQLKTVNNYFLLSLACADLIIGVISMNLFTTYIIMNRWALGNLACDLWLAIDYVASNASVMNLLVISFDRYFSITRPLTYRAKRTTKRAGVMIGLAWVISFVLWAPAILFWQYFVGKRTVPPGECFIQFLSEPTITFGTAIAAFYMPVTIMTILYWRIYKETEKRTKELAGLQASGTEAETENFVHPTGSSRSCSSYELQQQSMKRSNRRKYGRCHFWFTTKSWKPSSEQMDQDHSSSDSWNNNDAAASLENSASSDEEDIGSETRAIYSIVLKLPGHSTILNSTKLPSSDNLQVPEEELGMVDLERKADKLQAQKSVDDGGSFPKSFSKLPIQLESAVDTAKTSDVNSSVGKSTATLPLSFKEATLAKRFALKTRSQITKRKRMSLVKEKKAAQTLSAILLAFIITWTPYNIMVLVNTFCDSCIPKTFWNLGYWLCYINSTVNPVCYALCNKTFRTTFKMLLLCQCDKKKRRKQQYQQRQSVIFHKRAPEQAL
T5 sequence (P25101 21-427): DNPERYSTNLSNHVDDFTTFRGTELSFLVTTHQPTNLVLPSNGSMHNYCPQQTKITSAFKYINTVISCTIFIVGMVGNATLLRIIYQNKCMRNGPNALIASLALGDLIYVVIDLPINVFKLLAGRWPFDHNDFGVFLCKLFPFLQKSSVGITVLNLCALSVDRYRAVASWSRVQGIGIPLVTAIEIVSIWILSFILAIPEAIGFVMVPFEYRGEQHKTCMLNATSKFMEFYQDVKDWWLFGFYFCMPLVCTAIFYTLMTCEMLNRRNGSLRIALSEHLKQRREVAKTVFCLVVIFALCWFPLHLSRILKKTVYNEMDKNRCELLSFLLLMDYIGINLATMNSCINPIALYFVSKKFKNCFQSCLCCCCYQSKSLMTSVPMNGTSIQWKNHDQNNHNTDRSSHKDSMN
T7 sequence (P34972 whole entry): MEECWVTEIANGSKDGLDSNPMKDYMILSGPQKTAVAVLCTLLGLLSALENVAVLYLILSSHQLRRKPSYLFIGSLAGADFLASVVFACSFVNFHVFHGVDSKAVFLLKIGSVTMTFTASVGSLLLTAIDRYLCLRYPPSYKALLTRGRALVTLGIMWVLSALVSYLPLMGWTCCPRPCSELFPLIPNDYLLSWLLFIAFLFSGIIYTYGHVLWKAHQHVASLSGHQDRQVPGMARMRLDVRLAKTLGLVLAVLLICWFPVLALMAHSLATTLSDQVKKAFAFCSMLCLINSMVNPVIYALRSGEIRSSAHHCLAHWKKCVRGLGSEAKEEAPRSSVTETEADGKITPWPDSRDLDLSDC

Compound | inhibition at 10 µM [1] | inhibition at 10 µM [2] | KiNativ Kinase Panel Data [3] | inhibition at 10 µM [4] | inhibition at 10 µM [5] | IC50 [6] | KiNativ Kinase Panel Data ([7]; […]) | inhibition at 10 µM [8] | inhibition at 10 µM [9] | effect on tumor p4EBP1 levels [10] | MCF-7 tumor PD: dose proportional duration of >80% p4EBP1 inhibition [10] | inhibition at 10 µM [11] | IC50 [12] | KiNativ Kinase Panel Data ([13]; Lys1, […]) | KiNativ Kinase Panel Data ([13]; Lys2, DIKPDNILIDLDGHIK) | KiNativ Kinase Panel Data ([7]; VLGTGAYGKVFLVR) | KiNativ Kinase Panel Data [14] | KiNativ Kinase Panel Data [15] | KiNativ Kinase Panel Data ([13]; Lys1, VDTHALYAMKTLR)
CO[C@H]1C[C@@H]2CC[C@@H](C)[C@@](O)(O2)C(=O)C(=O)N2CCCC[C@H]2C(=O)O[C@H]([C@H](C)C[C@@H]2CC[C@@H](OC(=O)NCCOCCOCCOCCOCCOCCOCCOCCOCCC(=O)N3CCc4cc(Cn5nc(-c6ccc7oc(N)nc7c6)c6c(N)ncnc65)ccc4C3)[C@H](OC)C2)C[C@@H](O)[C@H](C)/C=C(\C)[C@@H](O)[C@@H](OC)C(=O)[C@H](C)C[C@H](C)/C=C/C=C/C=C/1C [compound 38] | -14.3% | -12.6% | 26.5 | -4.6% | 16.8% | 19 nM | 33.6 | -4.5% | 0.6% | dose-dependent, prolonged, and profound inhibition | 24 to 48 h | 10.3% | 0.14 nM | -20.5 | 22.9 |  |  |  | 
CO[C@H]1C[C@@H]2CC[C@@H](C)[C@@](O)(O2)C(=O)C(=O)N2CCCC[C@H]2C(=O)O[C@H]([C@H](C)C[C@@H]2CC[C@@H](OC(=O)NCCOCCOCCOCCOCCOCCOCCOCCOCCC(=O)NCCS(=O)(=O)c3ccc(C(=O)N4CCOc5ccc(-c6ccc(N)nc6)cc5C4)c(C)c3F)[C@H](OC)C2)C[C@@H](O)[C@H](C)/C=C(\C)[C@@H](O)[C@@H](OC)C(=O)[C@H](C)C[C@H](C)/C=C/C=C/C=C/1C [compound 40] |  |  | 1.3 |  |  |  |  |  |  | dose-dependent, robust, and long-lasting inhibition | 24 to 48 h |  |  |  | -1.4 | 16.0 | 27.4 | -40.3 | -0.8
